According to US10828315B2 (Madrigal Pharmaceuticals, Inc., priority 2013, dated 2020):
Several values for one entry are separate records, joined by “and”; a condition that tells them apart may be missing. Equal values may be shown once. Read-outs that look alike come from different tables or passages of the source.

Experiments:
[1] = mouse, plasma, 1 h, 10 µM
[2] = Mouse plasma stability protocol, up to 1 h (Examples 16-18)
HER2 = HER2 degradation assay with BT-474 cell line (Example 12, FACS); assay type: cell-based, human
[3] = Tissue Distribution Data for SDC-TRAP-0056
[4] = % Remaining of parent after 1 h incubation in mouse plasma at 37° C. (10 μM)

Structure (SMILES)	% Remaining (1 h) [2, 4]	% Remaining (1 h) ([2]; mouse plasma, 37° C., 10 μM)	% Remaining (1 h, 37° C.) ([2]; mouse plasma, 37° C.)	IC50 (HER2)	also measured
COc1ccc(-c2cnoc2-c2cc(OC)c(OC)c(OC)c2)cc1OC(=O)N1CCN(c2ccc(-n3c(O)nnc3-c3cc(C(C)C)c(O)cc3O)cc2)CC1 [SDC-TRAP-0099, 2-methoxy-5-(5-(3,4,5-trimethoxyphenyl)isoxazol-4-yl)phenyl-4-(4-(3-(2,4-dihydroxy-5-isopropylphenyl)-5-hydroxy-4H-1,2,4-triazol-4-yl)phenyl) piperazine-1-carboxylate]	–	–	–	–	% Remaining (1 h) [1]: 95.2%
CCNC(=O)c1nnc(-c2cc(C(C)C)c(O)cc2O)n1-c1ccc(CN2CCC(C(=O)N3CCC(OC(=O)Nc4cccc5c4CN(C4CCC(=O)NC4=O)C5=O)CC3)CC2)cc1 (stereo not shown) [SDC-TRAP-0123, 1-(1-(4-(3-(2,4-Dihydroxy-5-isopropylphenyl)-5-(ethylcarbamoyl)-4H-1,2,4-triazol-4-yl)benzyl)piperidine-4-carbonyl)piperidin-4-yl (2-(2,6-dioxopiperidin-3-yl)-1-oxoisoindolin-4-yl)carbamate]	–	–	–	–	% Remaining (1 h) [1]: 95.6%
CCc1c2c(nc3ccc(OC(=O)N4CCC(Cn5ccc6cc(-n7c(O)nnc7-c7cc(C(C)C)c(O)cc7O)ccc65)CC4)cc13)-c1cc3c(c(=O)n1C2)COC(=O)C3(O)CC (stereo not shown) [SDC-TRAP-0186, 4,11-diethyl-4-hydroxy-3,14-dioxo-3,4,12,14-tetrahydro-1H-pyrano[3′,4′:6,7]indolizino[1,2-b]quinolin-9-yl 4-((5-(3-(2,4-dihydroxy-5-isopropylphenyl)-5-hydroxy-4H-1,2,4-triazol-4-yl)-1H-indol-1-yl)methyl)piperidine-1-carboxylate]	57.9%	57.9%	57.9%	1620 nM	–
CCNC(=O)c1nnc(-c2cc(C(C)C)c(O)cc2O)n1-c1ccc(Oc2ccc(N(C)C(=O)Oc3ccc4nc5c(c(CC)c4c3)Cn3c-5cc4c(c3=O)COC(=O)[C@]4(O)CC)cc2)cc1 [SDC-TRAP-0145, (S)-4,11-diethyl-4-hydroxy-3,14-dioxo-3,4,12,14-tetrahydro-1H-pyrano[3′,4′:6,7]indolizino[1,2-b]quinolin-9-yl (4-(4-(3-(2,4-dihydroxy-5-isopropylphenyl)-5-(ethylcarbamoyl)-4H-1,2,4-triazol-4-yl)phenoxy)phenyl)(methyl)carbamate]	14.1%	–	14.1%	183 nM	–
CCNC(=O)c1nnc(-c2cc(C(C)C)c(O)cc2O)n1-c1ccc(Oc2ccc(C(=O)N3CCC(C(=O)OC4(CC)C(=O)OCc5c4cc4n(c5=O)Cc5cc6c(CN(C)C)c(O)ccc6nc5-4)CC3)cc2)cc1 (stereo not shown) [SDC-TRAP-0159, 10-((dimethylamino)methyl)-4-ethyl-9-hydroxy-3,14-dioxo-3,4,12,14-tetrahydro-1H-pyrano[3′,4′:6,7]indolizino[1,2-b]quinolin-4-yl-1-(4-(4-(3-(2,4-dihydroxy-5-isopropylphenyl)-5-(ethylcarbamoyl)-4H-1,2,4-triazol-4-yl)phenoxy)benzoyl)piperidine-4-carboxylate]	121%	–	–	> 1000 nM	–
CCNC(=O)c1nnc(-c2cc(C(C)C)c(O)cc2O)n1-c1ccc(Oc2ccc(C(=O)N3CCC(OC(=O)OC4(CC)C(=O)OCc5c4cc4n(c5=O)Cc5c-4nc4ccc(O)cc4c5CC)CC3)cc2)cc1 (stereo not shown) [SDC-TRAP-0203, 4,11-Diethyl-9-hydroxy-3,14-dioxo-3,4,12,14-tetrahydro-1H-pyrano[3′,4′:6,7]indolizino[1,2-b]quinolin-4-yl (1-(4-(4-(3-(2,4-dihydroxy-5-isopropylphenyl)-5-(ethylcarbamoyl)-4H-1,2,4-triazol-4-yl)phenoxy)benzoyl)piperidin-4-yl) carbonate]	–	–	71.2%	446 nM	–
CCc1c2c(nc3ccc(O)cc13)-c1cc3c(c(=O)n1C2)COC(=O)C3(CC)OC(=O)CN1CCC(Cc2ccc(-n3c(O)nnc3-c3cc(C(C)C)c(O)cc3O)cc2)CC1 (stereo not shown) [SDC-TRAP-0071, 4,11-diethyl-9-hydroxy-3,14-dioxo-3,4,12,14-tetrahydro-1H-pyrano[3′,4′:6,7]indolizino[1,2-b]quinolin-4-yl 2-(4-(4-(3-(2,4-dihydroxy-5-isopropylphenyl)-5-hydroxy-4H-1,2,4-triazol-4-yl)benzyl)piperidin-1-yl)acetate]	102%	–	102%	307 nM	–
CCNC(=O)c1nnc(-c2cc(C(C)C)c(O)cc2O)n1-c1ccc(Oc2ccc(C(=O)N3CCC(N(C)C(=O)Oc4ccc5nc6c(c(CC)c5c4)Cn4c-6cc5c(c4=O)COC(=O)C5(O)CC)CC3)cc2)cc1 (stereo not shown) [SDC-TRAP-0180, 4,11-Diethyl-4-hydroxy-3,14-dioxo-3,4,12,14-tetrahydro-1H-pyrano[3′,4′:6,7]indolizino[1,2-b]quinolin-9-yl (1-(4-(4-(3-(2,4-dihydroxy-5-isopropylphenyl)-5-(ethylcarbamoyl)-4H-1,2,4-triazol-4-yl)phenoxy)benzoyl)piperidin-4-yl)(methyl)carbamate]	72.4%	72.4%	72.4%	325 nM	–
CCc1c2c(nc3ccc(OC(=O)N(C)C4CCN(C(=O)CCn5ccc6cc(-n7c(O)nnc7-c7cc(C(C)C)c(O)cc7O)ccc65)CC4)cc13)-c1cc3c(c(=O)n1C2)COC(=O)C3(O)CC (stereo not shown) [SDC-TRAP-0184, 4,11-diethyl-4-hydroxy-3,14-dioxo-3,4,12,14-tetrahydro-1H-pyrano[3′,4′:6,7]indolizino[1,2-b]quinolin-9-yl (1-(3-(5-(3-(2,4-dihydroxy-5-isopropylphenyl)-5-hydroxy-4H-1,2,4-triazol-4-yl)-1H-indol-1-yl)propanoyl)piperidin-4-yl)(methyl)carbamate]	18.0%	18.0%	18.0%	4000 nM	–
CCNC(=O)c1nnc(-c2cc(C(C)C)c(O)cc2O)n1-c1ccc(CN2CCC(C(=O)N3CCC(N(C)C(=O)Oc4ccc5nc6c(c(CC)c5c4)Cn4c-6cc5c(c4=O)COC(=O)C5(O)CC)CC3)CC2)cc1 (stereo not shown) [SDC-TRAP-0172, 4,11-diethyl-4-hydroxy-3,14-dioxo-3,4,12,14-tetrahydro-1H-pyrano[3′,4′:6,7]indolizino[1,2-b]quinolin-9-yl (1-(1-(4-(3-(2,4-dihydroxy-5-isopropylphenyl)-5-(ethylcarbamoyl)-4H-1,2,4-triazol-4-yl)benzyl)piperidine-4-carbonyl)piperidin-4-yl)(methyl) carbamate]	74.7%	74.7%	74.7%	< 78 nM and 56 nM	–
CCNC(=O)c1nnc(-c2cc(C(C)C)c(O)cc2O)n1-c1ccc(CN2CCC(C(=O)N3CCN(C(=O)Oc4ccc5nc6c(c(CC)c5c4)Cn4c-6cc5c(c4=O)COC(=O)C5(O)CC)C(C)C3)CC2)cc1 (stereo not shown) [SDC-TRAP-0185, 4,11-diethyl-4-hydroxy-3,14-dioxo-3,4,12,14-tetrahydro-1H-pyrano[3′,4′:6,7]indolizino[1,2-b]quinolin-9-yl 4-(1-(4-(3-(2,4-dihydroxy-5-isopropylphenyl)-5-(ethylcarbamoyl)-4H-1,2,4-triazol-4-yl)benzyl)piperidine-4-carbonyl)-2-methylpiperazine-1-carboxylate]	68.1%	68.1%	68.1%	38 nM	–
CCc1c2c(nc3ccc(O)cc13)-c1cc3c(c(=O)n1C2)COC(=O)C3(CC)OC(=O)CN1CCN(c2ccc(-n3c(O)nnc3-c3cc(C(C)C)c(O)cc3O)cc2)CC1 (stereo not shown) [SDC-TRAP-0056, 4,11-diethyl-9-hydroxy-3,14-dioxo-3,4,12,14-tetrahydro-1H-pyrano[3′,4′:6,7]indolizino[1,2-b]quinolin-4-yl 2-(4-(4-(3-(2,4-dihydroxy-5-isopropylphenyl)-5-hydroxy-4H-1,2,4-triazol-4-yl)phenyl)piperazin-1-yl)acetate]	78.4%	–	78%	1270 nM	Plasma Conc. ([3]; Time (h) 0.083): 1220 µM; Tumor Conc. ([3]; Time (h) 0.083): 6.40 nmol/g of tissue; Tumor/Plasma Ratio ([3]; Time (h) 0.083): 0.00525; Plasma Conc. ([3]; Time (h) 6): 2.06 µM; Tumor Conc. ([3]; Time (h) 6): 2.65 nmol/g of tissue; Tumor/Plasma Ratio ([3]; Time (h) 6): 1.28; Plasma Conc. ([3]; Time (h) 12): 0.382 µM; Tumor Conc. ([3]; Time (h) 12): 0.746 nmol/g of tissue; Tumor/Plasma Ratio ([3]; Time (h) 12): 1.95; Plasma Conc. ([3]; Time (h) 24): 0.0343 µM; Tumor Conc. ([3]; Time (h) 24): BQL; Plasma Conc. ([3]; Time (h) 48): BQL; Tumor Conc. ([3]; Time (h) 48): BQL
Cc1cc(COC(=O)Nc2cccc3c2CN(C2CCC(=O)NC2=O)C3=O)cc(C)c1OC(=O)N1CCN(Cc2ccc(-n3c(O)nnc3-c3cc(C(C)C)c(O)cc3O)cc2F)CC1 (stereo not shown) [SDC-TRAP-0182, 4-((((2-(2,6-dioxopiperidin-3-yl)-1-oxoisoindolin-4-yl)carbamoyl)oxy)methyl)-2,6-dimethylphenyl 4-(4-(3-(2,4-dihydroxy-5-isopropylphenyl)-5-hydroxy-4H-1,2,4-triazol-4-yl)-2-fluorobenzyl)piperazine-1-carboxylate]	91.9%	–	–	359 nM	–
CCNC(=O)c1nnc(-c2cc(C(C)C)c(O)cc2O)n1-c1ccc(Oc2ccc(OC(=O)N(C)CCOC(=O)Nc3cccc4c3CN(C3CCC(=O)NC3=O)C4=O)cc2)cc1 (stereo not shown)	51.2%	–	–	2860 nM	–
CCNC(=O)c1nnc(-c2cc(C(C)C)c(O)cc2O)n1-c1ccc(OC2CCN(C(=O)CN(C)C(=O)Oc3ccc4nc5c(c(CC)c4c3)Cn3c-5cc4c(c3=O)COC(=O)[C@]4(O)CC)CC2)cc1 [SDC-TRAP-0206, (S)-4,11-diethyl-4-hydroxy-3,14-dioxo-3,4,12,14-tetrahydro-1H-pyrano[3′,4′:6,7]indolizino[1,2-b]quinolin-9-yl (2-(4-(4-(3-(2,4-dihydroxy-5-isopropylphenyl)-5-(ethylcarbamoyl)-4H-1,2,4-triazol-4-yl)phenoxy)piperidin-1-yl)-2-oxoethyl)(methyl)carbamate]	68.6%	–	68.6%	321 nM	–
